Calls of active or inactive are those of the source.
Experiments:
Kallikrein-7 = Kallikrein-7 (Homo sapiens, UniProt P49862); assay: Fluorescence Intensity-based biochemical primary high throughput dose response assay to identify activators of kallikrein-7 (K7) zymogen.
[1] = Jurkat T cell cytotoxicity, dose response, cytotoxicity control for P. falciparum gametocyte viability project, luminescence (AID 1117277); assay type: functional, cell-based;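 further: potency reflects loss of cellular ATP meaning fewer viable cells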
[2] = P. falciparum late gametocyte killing, dose response, luminescence (AID 1117278); assay type: functional, cell-based;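 further: gametocytes exposed to compound for 24 hours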
[3] = tested on: Streptococcus sp. 'group A'; assay: growth inhibition of control SK(-) GAS strain, dose response, counter-screen for streptokinase expression inhibitor project, luminescence, kanamycin, BacTiterGlo, confirmation (AID 1900); assay type: functional, organism-based
Streptococcus = assay: Group A Streptococcus viability loss, dose response, counter-screen for streptokinase expression inhibitor project, luminescence, BacTiterGlo (AID 1915); assay type: functional, organism-based;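 further: potency for reduction of bacterial viability or growth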
Streptokinase A = biological target: T1, Streptokinase A (Streptococcus pyogenes serotype M1, UniProt P10520); assay: S. pyogenes streptokinase expression inhibitors, potency, dose response, plasminogen activation absorbance, OD405 (AID 1914); assay type: functional, Streptococcus pyogenes M1 GAS;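 further: secreted streptokinase activity via plasminogen activation per viability signal from cell pellet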
T1 sequence (P10520 whole entry): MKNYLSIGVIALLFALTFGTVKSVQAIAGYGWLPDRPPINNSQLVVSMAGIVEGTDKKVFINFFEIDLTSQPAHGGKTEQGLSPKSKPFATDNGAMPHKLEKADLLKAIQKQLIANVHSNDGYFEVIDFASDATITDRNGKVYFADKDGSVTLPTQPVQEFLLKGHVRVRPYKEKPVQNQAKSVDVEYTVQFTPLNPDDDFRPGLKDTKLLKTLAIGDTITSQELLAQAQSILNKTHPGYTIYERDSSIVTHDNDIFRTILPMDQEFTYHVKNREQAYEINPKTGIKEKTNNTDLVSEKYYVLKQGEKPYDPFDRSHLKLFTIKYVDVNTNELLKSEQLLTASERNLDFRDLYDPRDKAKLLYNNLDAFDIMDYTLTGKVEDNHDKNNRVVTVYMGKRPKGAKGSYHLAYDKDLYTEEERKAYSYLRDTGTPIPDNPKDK

[4] = inhibitors of PGC1a acetylation in cells, dose response, cell-based, cherry-picked samples (AID 720514); assay type: functional;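 further: potency may reflect raised or lowered acetylation signal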
[5] = cytotoxicity in OVCAR8 ovarian cancer cells, dose response, PAX8 project, cell-based, plate reader, dry powder samples (AID 743197); assay type: functional; settings: OVCAR-8
Paired box protein Pax-8 = Paired box protein Pax-8 (Homo sapiens, UniProt Q06710); assay: inhibitors of PAX8-driven TPO luciferase reporter, dose response, RMG-I cells, cherry-pick (AID 687027); assay type: functional, cell-based;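 further: luciferase reporter driven by Pax8 target thyroperoxidase promoter measured by SteadyGlo luminescence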
Paired box protein Pax-8, sequence (Q06710 whole entry): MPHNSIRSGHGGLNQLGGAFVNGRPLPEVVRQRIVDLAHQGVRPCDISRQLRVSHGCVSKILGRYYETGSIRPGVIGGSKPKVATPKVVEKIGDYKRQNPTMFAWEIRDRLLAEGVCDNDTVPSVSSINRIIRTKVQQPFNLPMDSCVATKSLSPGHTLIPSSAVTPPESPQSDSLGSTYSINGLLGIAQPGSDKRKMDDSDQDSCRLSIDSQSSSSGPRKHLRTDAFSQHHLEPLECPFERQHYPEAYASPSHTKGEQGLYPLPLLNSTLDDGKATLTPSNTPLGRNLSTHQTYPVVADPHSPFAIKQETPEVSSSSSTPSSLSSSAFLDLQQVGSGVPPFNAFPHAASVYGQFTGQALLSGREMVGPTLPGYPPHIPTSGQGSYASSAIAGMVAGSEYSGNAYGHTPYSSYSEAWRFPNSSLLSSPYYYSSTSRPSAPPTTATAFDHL

[6] = NIH:OVCAR-3 ovarian cancer cell cytotoxicity, dose response, PAX8 inhibitor project, plate reader, dry powder samples (AID 743044); assay type: functional, cell-based
[7] = P. falciparum Dd2 growth inhibitors, dose response, SYBR Green, dry powder samples (AID 1159566); assay type: functional, cell-based;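 further: potency for growth inhibition with lower SYBR green DNA signal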
[8] = P. falciparum Dd2 growth inhibitors, dose response, SYBR Green, dry powder samples, set 9 (AID 1159568); assay type: functional, cell-based
[9] = HepG2 cell cytotoxicity, dose response, cytotoxicity control, plate reader, dry powder samples (AID 1159569); assay type: functional, cell-based;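 further: inhibitor potency with signal falling toward the positive control level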
[10] = P. falciparum ATP4 D1247Y mutant growth inhibitors, dose response, NITD609-resistant line, SYBR Green, dry powder (AID 1159571); assay type: functional, cell-based;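 further: parasites synchronized at ring stage by sorbitol before testing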
[11] = MC4R antagonists, dose response, counter-screen for LGR2 antagonist project, cell-based, plate reader, cherry pick (AID 743444); assay type: functional;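 further: transfected HEK 293 cells stimulated with alpha-MSH peptide; potency of inhibitors of the alpha-MSH evoked signal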
[12] = A549 cell cytotoxicity, dose response, cytotoxicity control, plate reader, cherry-pick, antagonist series (AID 743412); assay type: functional, cell-based
[13] = P. falciparum Dd2 growth inhibitors, dose response, SYBR Green, cherry-picked samples (AID 1159567); assay type: functional, cell-based
[14] = P. falciparum 3D7-ScDHODH growth inhibitors, dose response, SYBR Green, dry powder samples (AID 1159570); assay type: functional, cell-based;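 further: parasite growth measured after 72 hours of compound exposure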
[15] = LGR2 antagonists, dose response, cell-based, HEK293, CRE-luciferase reporter, cherry pick, set 2 (AID 743343); assay type: functional;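 further: transfected cells were stimulated with diluted bursicon conditioned medium after compound addition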
[16] = biological target: T2, Sentrin-specific protease 8 (Homo sapiens, UniProt Q96LD8); assay type: functional;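 further: luminescence read-out of SENP8 inhibition, dose-response confirmation following an ultra-high-throughput screen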
T2 sequence (Q96LD8 whole entry): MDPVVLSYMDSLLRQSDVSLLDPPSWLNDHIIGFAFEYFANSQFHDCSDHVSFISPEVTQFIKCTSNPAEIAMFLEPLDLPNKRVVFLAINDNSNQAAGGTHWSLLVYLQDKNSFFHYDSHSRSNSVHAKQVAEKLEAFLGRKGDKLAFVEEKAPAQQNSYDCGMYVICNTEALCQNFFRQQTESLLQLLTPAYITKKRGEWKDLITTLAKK

[17] = biological target: T3, Oxysterols receptor LXR-beta (Homo sapiens, UniProt P55055); assay type: functional, cell-based;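 further: Cell-based luminescence dose-response assay of agonist activity at LXR, run as a confirmatory counterscreen to a daf-12 agonist screen; HEK293 cells with Gal4-LXR fusion and GAL4-driven luciferase reporter; agonist potency from rising luciferase signal of a Gal4-LXR reporter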
T3 sequence (P55055 whole entry): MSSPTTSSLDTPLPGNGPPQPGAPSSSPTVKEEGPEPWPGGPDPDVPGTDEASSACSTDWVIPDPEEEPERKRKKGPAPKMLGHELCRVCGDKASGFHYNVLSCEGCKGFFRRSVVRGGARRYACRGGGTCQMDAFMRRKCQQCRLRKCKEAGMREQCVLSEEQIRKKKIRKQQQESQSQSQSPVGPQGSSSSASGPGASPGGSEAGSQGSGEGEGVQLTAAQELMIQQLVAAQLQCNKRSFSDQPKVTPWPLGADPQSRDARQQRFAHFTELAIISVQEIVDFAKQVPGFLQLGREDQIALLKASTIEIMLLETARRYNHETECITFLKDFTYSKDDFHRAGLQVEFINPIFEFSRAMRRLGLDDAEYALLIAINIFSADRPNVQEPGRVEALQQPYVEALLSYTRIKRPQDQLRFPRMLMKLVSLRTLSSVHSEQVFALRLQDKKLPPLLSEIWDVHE

Caspase-3 = biological target: T4, Caspase-3 (Homo sapiens, UniProt P42574); assay type: functional;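 further: Dose-response selectivity test against caspase-3 for candidate inhibitors of sentrin-specific proteases (SENPs)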
T4 sequence (P42574 whole entry): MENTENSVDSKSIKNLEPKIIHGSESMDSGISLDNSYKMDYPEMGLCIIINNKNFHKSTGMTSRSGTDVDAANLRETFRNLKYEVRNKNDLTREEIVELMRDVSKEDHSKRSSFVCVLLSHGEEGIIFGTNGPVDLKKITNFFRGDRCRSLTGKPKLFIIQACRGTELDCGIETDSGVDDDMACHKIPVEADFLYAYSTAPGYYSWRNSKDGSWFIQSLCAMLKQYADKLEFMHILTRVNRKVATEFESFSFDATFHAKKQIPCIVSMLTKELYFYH

[18] = biological target: T5, Sentrin-specific protease 7 (Homo sapiens, UniProt Q9BQF6); assay type: functional;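 further: Luminescence-based dose-response confirmation of ultra-high-throughput screening hits, measuring inhibition of SENP7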
T5 sequence (Q9BQF6 whole entry): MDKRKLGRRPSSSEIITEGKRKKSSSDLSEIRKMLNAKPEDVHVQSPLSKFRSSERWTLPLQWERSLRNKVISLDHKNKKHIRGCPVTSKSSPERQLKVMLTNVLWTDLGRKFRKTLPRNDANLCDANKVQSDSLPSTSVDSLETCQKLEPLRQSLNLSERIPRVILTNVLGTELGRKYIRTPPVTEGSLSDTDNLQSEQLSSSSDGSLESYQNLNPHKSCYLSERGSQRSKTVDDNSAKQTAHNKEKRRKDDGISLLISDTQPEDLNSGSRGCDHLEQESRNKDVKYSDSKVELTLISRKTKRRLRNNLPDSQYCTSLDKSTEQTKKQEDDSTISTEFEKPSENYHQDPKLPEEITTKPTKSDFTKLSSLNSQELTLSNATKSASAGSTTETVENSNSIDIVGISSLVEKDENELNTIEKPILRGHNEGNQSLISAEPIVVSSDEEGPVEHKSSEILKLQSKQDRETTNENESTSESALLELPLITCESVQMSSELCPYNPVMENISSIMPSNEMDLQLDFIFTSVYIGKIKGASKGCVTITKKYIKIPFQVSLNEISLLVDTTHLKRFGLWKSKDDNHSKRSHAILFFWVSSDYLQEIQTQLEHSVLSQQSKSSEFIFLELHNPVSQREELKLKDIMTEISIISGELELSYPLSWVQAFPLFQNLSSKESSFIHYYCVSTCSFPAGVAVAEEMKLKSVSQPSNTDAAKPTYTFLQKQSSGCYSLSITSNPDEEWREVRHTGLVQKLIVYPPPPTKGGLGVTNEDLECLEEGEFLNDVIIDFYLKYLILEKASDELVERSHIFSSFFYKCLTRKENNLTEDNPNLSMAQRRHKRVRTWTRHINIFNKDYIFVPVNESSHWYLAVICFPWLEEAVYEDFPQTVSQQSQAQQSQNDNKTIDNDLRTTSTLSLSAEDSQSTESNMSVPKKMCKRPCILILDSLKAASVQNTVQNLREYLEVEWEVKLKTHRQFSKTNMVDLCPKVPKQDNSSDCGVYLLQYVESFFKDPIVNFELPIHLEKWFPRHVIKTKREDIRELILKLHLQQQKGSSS

[19] = biological target: T6, Sentrin-specific protease 6 (Homo sapiens, UniProt Q9GZR1); assay type: functional;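 further: Luminescence-based dose-response confirmatory assay of SENP6 inhibition, following up an ultra-high-throughput screen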
T6 sequence (Q9GZR1 whole entry): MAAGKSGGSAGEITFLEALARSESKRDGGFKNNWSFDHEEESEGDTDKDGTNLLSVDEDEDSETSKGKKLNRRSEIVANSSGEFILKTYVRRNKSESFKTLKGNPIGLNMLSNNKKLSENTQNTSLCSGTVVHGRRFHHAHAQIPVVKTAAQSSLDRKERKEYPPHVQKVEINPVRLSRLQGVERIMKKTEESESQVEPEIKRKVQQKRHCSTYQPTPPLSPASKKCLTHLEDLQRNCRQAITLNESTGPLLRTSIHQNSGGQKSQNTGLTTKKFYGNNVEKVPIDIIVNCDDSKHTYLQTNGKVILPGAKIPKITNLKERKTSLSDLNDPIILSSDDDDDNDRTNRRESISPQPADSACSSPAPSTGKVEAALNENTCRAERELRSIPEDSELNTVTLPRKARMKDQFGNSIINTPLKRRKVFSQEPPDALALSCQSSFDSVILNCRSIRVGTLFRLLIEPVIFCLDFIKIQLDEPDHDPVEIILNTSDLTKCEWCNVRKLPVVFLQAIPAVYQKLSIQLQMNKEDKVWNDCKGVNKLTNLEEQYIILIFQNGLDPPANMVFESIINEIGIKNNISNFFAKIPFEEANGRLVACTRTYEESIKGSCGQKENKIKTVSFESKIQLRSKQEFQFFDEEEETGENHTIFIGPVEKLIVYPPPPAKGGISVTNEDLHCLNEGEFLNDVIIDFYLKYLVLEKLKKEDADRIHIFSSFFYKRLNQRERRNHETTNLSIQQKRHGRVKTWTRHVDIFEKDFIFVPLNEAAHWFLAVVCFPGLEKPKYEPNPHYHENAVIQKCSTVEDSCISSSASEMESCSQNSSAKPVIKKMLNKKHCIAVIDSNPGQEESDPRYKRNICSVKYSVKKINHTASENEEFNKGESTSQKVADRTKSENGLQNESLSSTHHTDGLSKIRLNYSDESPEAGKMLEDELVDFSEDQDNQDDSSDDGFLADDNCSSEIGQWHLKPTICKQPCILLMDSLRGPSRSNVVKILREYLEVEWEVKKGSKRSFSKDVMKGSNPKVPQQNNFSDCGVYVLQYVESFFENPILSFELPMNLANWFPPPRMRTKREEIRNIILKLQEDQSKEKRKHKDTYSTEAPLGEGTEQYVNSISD

[20] = biological target: G-protein coupled receptor 183 (Homo sapiens, UniProt P32249); assay: SAR confirmation of small molecule antagonists of the EBI2 receptor via a luminescent beta-arrestin assa.; assay type: functional
G-protein coupled receptor 183, sequence (P32249 whole entry): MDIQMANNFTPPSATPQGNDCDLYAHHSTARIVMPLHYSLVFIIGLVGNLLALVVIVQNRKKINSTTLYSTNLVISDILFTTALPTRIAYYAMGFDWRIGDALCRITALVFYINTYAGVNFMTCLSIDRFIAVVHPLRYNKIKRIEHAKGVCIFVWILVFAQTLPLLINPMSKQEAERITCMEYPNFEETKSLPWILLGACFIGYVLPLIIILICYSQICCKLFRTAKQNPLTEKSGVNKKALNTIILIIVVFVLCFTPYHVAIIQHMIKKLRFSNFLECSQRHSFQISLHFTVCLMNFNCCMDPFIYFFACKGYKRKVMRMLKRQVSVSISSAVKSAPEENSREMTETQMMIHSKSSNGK

Kallikrein-7, sequence (P49862 whole entry): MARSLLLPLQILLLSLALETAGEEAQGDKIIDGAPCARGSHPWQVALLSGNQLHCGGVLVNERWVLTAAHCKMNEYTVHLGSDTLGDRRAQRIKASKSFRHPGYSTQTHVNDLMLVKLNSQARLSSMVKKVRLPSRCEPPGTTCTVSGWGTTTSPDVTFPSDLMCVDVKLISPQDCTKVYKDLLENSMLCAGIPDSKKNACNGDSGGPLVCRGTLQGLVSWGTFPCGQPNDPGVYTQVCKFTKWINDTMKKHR

Structure (SMILES): CN(C)CCNS(=O)(=O)c1ccc2c3c(cccc13)C(=O)N2
- EC50 (Kallikrein-7): 1.83 µM (active)

Structure (SMILES): CCOC(=O)N1CCC2(CC1)CC(=O)c1c(ccc3oc(C(=O)O)c(C)c13)O2
- EC50 (Kallikrein-7): 97.5 µM (inactive)

Structure (SMILES): COc1cc(CCC(C)=O)ccc1OC(=O)c1c(F)cccc1Cl
- IC50 [1]: > 83.2 µM (inactive)
- IC50 [2]: > 109 µM (inactive)

Structure (SMILES): Cc1ccc(C)n1-c1sc2c(c1C#N)CCC(C)C2 (configuration not stated)
- EC50 [3]: 7.14 µM (active)
- EC50 (Streptococcus): > 150 µM (not active)
- IC50 [1]: > 83.3 µM (inactive)
- IC50 [2]: > 109 µM (inactive)
- EC50 (Streptokinase A): 14.6 µM (active)

Structure (SMILES): O=C1Nc2ccccc2N=C(c2ccccc2)C1N(Cc1ccc(F)cc1)C(=O)c1cccnc1 (configuration not stated)
- AC50 [4]: 36.7 µM (active)

Structure (SMILES): Cc1ccc(S(=O)(=O)N(C)C[C@@H]2Oc3cc(C#Cc4ccncc4)ccc3S(=O)(=O)N([C@H](C)CO)C[C@H]2C)cc1
- AC50 [4]: 3.54 µM (active)
- AC50 [5]: > 70 µM (inactive)
- AC50 (Paired box protein Pax-8): 3.3 µM (active)
- AC50 [6]: 3.13 µM (active)

Structure (SMILES): C[C@H](CO)N1C[C@H](C)[C@H](CN(C)S(=O)(=O)c2ccc(C(F)(F)F)cc2)OCc2ccccc2-c2c(n(C)c3ccccc23)C1=O
- AC50 [7]: 0.117 µM (active)
- AC50 [8]: 0.293 µM (active)
- AC50 [9]: 25.7 µM (active)
- AC50 [10]: 0.152 µM (active)
- AC50 [11]: 28.9 µM (active)
- AC50 [12]: 19.8 µM (active)
- AC50 [13]: 0.427 µM (active)
- AC50 [14]: 0.155 µM (active)
- AC50 [15]: 27.3 µM (active)

Structure (SMILES): CCOC(=O)/C(=N\Nc1ncnc2ccccc12)c1ccc(C)cc1
- EC50 (cells): > 67.6 µM (inactive)
- IC50 [16]: 13.4 µM (active)
- EC50 [17]: > 67.6 µM (inactive)
- IC50 (Caspase-3): 32.9 µM (active)
- IC50 [18]: 6.78 µM (active)
- IC50 [19]: 11.7 µM (active)

Structure (SMILES): C[C@@H]1CN([C@H](C)CO)C(=O)c2cccc(NC(=O)c3ccc(-c4nccs4)cc3)c2O[C@@H]1CN(C)C(=O)Nc1ccc(C(F)(F)F)cc1
- AC50 [8]: 0.886 µM (active)

Structure (SMILES): O=C(/C=C/c1ccc(F)cc1)N1CCN(S(=O)(=O)c2ccccc2Br)CC1
- IC50 [20]: 0.00801 µM (active)

Structure (SMILES): Cc1ccc(C(=O)N2CCN(C(=O)/C=C/c3ccc(Br)cc3)CC2)cc1
- IC50 [20]: 0.00102 µM (active)

Reference: ChEMBL document CHEMBL1201862, “PubChem BioAssay data set” (2004)
